Reference: ChEMBL document CHEMBL1150878, “Novel cytotoxic diterpenes, excavatolides A-E, isolated from the Formosan gorgonian Briareum excavatum” (1998)
≈ marks a conversion by molar mass, not a printed value.

Key:
Assay type in all cases: functional
Settings in all cases: read-out: ED50 (the source's name)
[1] = test system: P388; test: Cytotoxicity against mouse P388 cells by MTT assay
[2] = test system: KB; test: Cytotoxicity against human KB cells by MTT assay
[3] = test system: A549; test: Cytotoxicity against human A549 cells by MTT assay
[4] = test system: HT-29; test: Cytotoxicity against human HT-29 cells by MTT assay

| SMILES | EC50 [1] [µg/mL] | EC50 [2] [µg/mL] | EC50 [3] [µg/mL] | EC50 [4] [µg/mL] |
| --- | --- | --- | --- | --- |
| CC(=O)O[C@H]1C[C@H](OC(C)=O)[C@@]2(C)[C@H]([C@H]1C)[C@]1(O)[C@@]2(OC(C)=O)CC/C(C)=C\[C@@H]2OC(=O)[C@@]3(C)O[C@@]213 | 5.8 (≈ 11.5 µM) | > 50 | 37.2 (≈ 73.4 µM) | 4.4 (≈ 8.69 µM) |
| C=C1[C@H]2O[C@H]2[C@@]2(O)[C@@]3(C)[C@H]4O[C@H]4[C@H](OC(C)=O)[C@H](C)[C@@H]3[C@@]2(OC(C)=O)[C@]2(O)[C@@H](C)C(=O)O[C@H]2[C@H]1Cl [BRIANOLIDE] | > 50 | > 50 | > 50 | > 50 |
| C=C1[C@@H]2C[C@@]3(OC(C)=O)[C@@]4(C)[C@@H](OC(C)=O)CC=C(C)[C@@H]4[C@@]3(O)[C@]3(O2)[C@@H](C)C(=O)O[C@H]3[C@H]1Cl [EXCAVATOLIDE A] | > 50 | 2.5 (≈ 5.2 µM) | 21.9 (≈ 45.5 µM) | > 50 |
| CCCC(=O)O[C@H]1C/C(C)=C\[C@@H]2OC(=O)[C@@]3(C)O[C@]23[C@]2(OC(C)=O)[C@H]3[C@@H](C)[C@@H](O)C[C@H](OC(C)=O)[C@]3(C)[C@]12OC(C)=O [EXCAVATOLIDE B] | > 50 | > 50 | > 50 | > 50 |
| CC(=O)O[C@H]1C[C@H](O)[C@H](C)[C@H]2[C@@]1(C)[C@]1(OC(C)=O)[C@@H](OC(C)=O)C/C(C)=C\[C@@H]3OC(=O)[C@@]4(C)O[C@]34[C@]21OC(C)=O [EXCAVATOLIDE C] | 0.3 (≈ 0.531 µM) | 1.9 (≈ 3.37 µM) | 1.9 (≈ 3.37 µM) | 1.9 (≈ 3.37 µM) |
| CC(=O)O[C@H]1C[C@H](O)[C@H](C)[C@H]2[C@@]1(C)[C@]1(O)[C@@H](OC(C)=O)C/C(C)=C\[C@@H]3OC(=O)[C@@]4(C)O[C@]34[C@]21OC(C)=O [EXCAVATOLIDE D] | 1.8 (≈ 3.44 µM) | 4.2 (≈ 8.04 µM) | > 50 | 1.3 (≈ 2.49 µM) |
| CC(=O)O[C@H]1C[C@H](O)[C@H](C)[C@H]2[C@@]1(C)[C@]1(OC(C)=O)CC/C(C)=C\[C@@H]3OC(=O)[C@@]4(C)O[C@]34[C@]21O [EXCAVATOLIDE E] | 1.6 (≈ 3.44 µM) | 0.8 (≈ 1.72 µM) | 1.2 (≈ 2.58 µM) | 1.6 (≈ 3.44 µM) |
